Patent US9683934B2, “Terahertz spectroscopy for predicting stability of amorphous drugs” (Cambridge Enterprise Limited, priority 2013, dated 2017)

Key:
[1] = known from earlier investigations; cited from earlier work
[2] = Glass-transition temperature, Tg; assay type: physicochemical
[3] = Terahertz time-domain spectroscopy (THz-TDS) dielectric losses of polyalcohols, linear fits ε″(T/Tg)=A+BT/Tg; assay type: physicochemical; conditions: for B3, linear coefficient of ε″(T/Tg)=A+BT/Tg in region (iii) / B1, linear coefficient of ε″(T/Tg)=A+BT/Tg in region (i) / B2, linear coefficient of ε″(T/Tg)=A+BT/Tg in region (ii): 1 THz, brackets = standard deviation at last decimal place; for B3, linear coefficient of ε″(T/Tg)=A+BT/Tg in region (iii): above Tg; for B1, linear coefficient of ε″(T/Tg)=A+BT/Tg in region (i): below about 0.6 Tg; for B2, linear coefficient of ε″(T/Tg)=A+BT/Tg in region (ii): between about 0.6 Tg and Tg; for Tα, crossover point of linear fits from region (ii) to region (iii) / Tβ, crossover point of linear fits from region (i) to region (ii) / Tβ/Tg: dielectric losses at 1 THz
Excerpt: In these examples, systematic THz-TDS study allows direct access to the complex dielectric function for the frequency range of 0.1-3 THz, over a wide range of temperatures. For these experiments, the samples were melted (except glycerol, which is liquid at room temperature), loaded into a continuous-flow cryostat and cooled at a rate of approximately 25 K·min^−1 to 80 K, followed by subsequent heating by 10 K increments to 310 K. Spectra were acquired using a THz-TDS setup operating in transmission geometry. All four polyalcohols were purchased from Sigma-Aldrich with >99% purity. The samples were used without further purification. […] The solid lines represent linear fits to the data in regions (i) below a transition temperature of about 0.6 Tg, (ii) between the transition temperature and Tg, and (iii), above Tg. The dashed vertical lines highlight the temperatures 0.6Tg and Tg, respectively. Tβ and Tα represent the crossover points (changes in gradient) of the linear fits from region (i) to region (ii), and from region (ii) to region (iii), respectively. […] The temperature dependence of ∈″(v) at v=1 THz is shown in FIG. 6 for all four polyalcohol materials. Here, we use the rescaled temperature T/Tg on the abscissa to compare the common features of the glassy state between the different polyalcohols. Three absorption regimes can be resolved in all samples: (i) temperature-independent losses; ii) a weak temperature dependence of losses below Tg; and iii) a strong temperature dependence of losses above Tg, as proposed previously. More detailed information was extracted by fitting the data points with an empirical linear fit, viz. ∈″(T/Tg)=A+BT/Tg, in each of the respective temperature regions. In Table I, we summarize the crossover temperatures Tβ and Tα between regions (i)-(ii) and (ii)-(iii), respectively, together with the respective gradients B1,2,3 obtained separately for each region, (i), (ii) and (iii). For all samples, Tα corresponds to Tg, the temperature above which the temperature-dependent part of ∈″(v) becomes dominated by the primary dielectric relaxation.

[4] = Terahertz absorption coefficient of amorphous paracetamol and indomethacin at 1 THz versus T/Tg; assay type: physicochemical; conditions: transmission
Excerpt: FIG. 3 plots the results of the characterisation of these materials. FIG. 3 plots the absorption coefficient for terahertz radiation (α/cm^−1) measured in transmission through the material at 1 THz, against temperature (plotted as T/Tg) for each material. As set out in the Summary of the Invention, the rate of change of the loss of EM radiation with temperature (the gradient of the graph in FIG. 3) may then be assessed, or measured, and as appropriate compared with a predetermined value in order to achieve a quantitative, or relative, characterisation of the stability of the amorphous material as described below. In FIG. 3, the plotted results for indomethacin show two distinct linear regions, firstly a small and constant rate of change, or gradient, for the absorption of the radiation below Tg, and secondly a marked change to a higher rate of change, or gradient, above Tg. By contrast the plotted results for paracetamol show three different linear regions, namely a low rate of change below a transition temperature of about 0.6 Tg, a higher rate of change between 0.6 Tg and Tg, and a still higher rate of change above Tg.

[5] = cited from earlier work; for stability of the glass (amorphous phase): known from direct measurements of crystallisation during storage; for resistance to crystallisation of the amorphous material below Tg: stored below Tg
[6] = trehalose/glycerol mixtures by glycerol weight concentration, Table 3

| Compound | fragility index, m [1] | Tg ([2]; polyalcohols, Table 1) | B3, linear coefficient of ε″(T/Tg)=A+BT/Tg in region (iii) [3] | B1, linear coefficient of ε″(T/Tg)=A+BT/Tg in region (i) [3] | B2, linear coefficient of ε″(T/Tg)=A+BT/Tg in region (ii) [3] | Tα, crossover point of linear fits from region (ii) to region (iii) [3] | Tβ, crossover point of linear fits from region (i) to region (ii) [3] | Tβ/Tg [3] | temperature above which the sample recrystallised ([3]; during heating in the THz-TDS run) | Tg [2, 6] | stability of the amorphous material indicated by gradient in region (ii) and changes in gradient ([3]; FIG. 5) | thermal change in absorption of terahertz radiation between 0.6 Tg-1.0 Tg [4] | stability of the glass (amorphous phase) [5] | resistance to crystallisation of the amorphous material below Tg [5] |
| --- | --- | --- | --- | --- | --- | --- | --- | --- | --- | --- | --- | --- | --- | --- |
| OC[C@@H](O)[C@H](O)CO [threitol] | 79 | -46.8 °C | 0.43(15) | 0.07(1) | 0.09(1) | 228 K | 147 K | 0.65 | above 250 K | – | – | – | – | – |
| OC[C@H]1O[C@H](O[C@H]2O[C@H](CO)[C@@H](O)[C@H](O)[C@H]2O)[C@H](O)[C@@H](O)[C@@H]1O [0%, trehalose] | – | – | – | – | – | – | – | – | – | 115 °C | – | – | – | – |
| OC[C@@H](O)[C@H](O)[C@@H](O)CO [xylitol] | 94 | -25.3 °C | 0.82(4) | 0.06(1) | 0.13(3) | 248 K | 167 K | 0.68 | – | – | – | – | – | – |
| OC[C@@H](O)[C@@H](O)[C@H](O)[C@@H](O)CO [sorbitol] | 128 | -4.8 °C | 1.92(5) | 0.02(2) | 0.34(2) | 265 K | 150 K | 0.56 | – | – | relatively poor stability | – | – | – |
| OCC(O)CO [glycerol] | 57 | -81.4 °C | 0.64(1) | 0.03(1) | – | 189 K | – | – | – | -83 °C | – | – | – | – |
| COc1ccc2c(c1)c(CC(=O)O)c(C)n2C(=O)c1ccc(Cl)cc1 [indomethacin] | – | – | – | – | – | – | – | – | – | – | – | very low | very good stability | much more stable |
| CC(=O)Nc1ccc(O)cc1 [paracetamol] | – | – | – | – | – | – | – | – | – | – | – | well developed | poor stability | crystallises rather readily |
